Earlier results on one substance are cited in patent US20050171131A1, “Diaminopyrimidine derivatives as growth hormone secrectgogue receptor (GHS-R) antagonists” (priority 2003, published 2005).

Non-standard residues stand in square brackets, D forms with d. No end group written: not given here.

Setting [1] is: repeated administration, ob/ob mice.

For the substance H-H[dW][dK]W[dF]K [[D-Lys-3]-GHRP], under “lean mice, mice with diet induced obesity, ob/ob obese mice”, the energy intake entry is recorded as “decrease energy intake”. Further, the “rate of gastric emptying” value (mice) was “reduced the rate of gastric emptying”. In addition, under setting [1], the body weight entry is “decreased body weight” and the glycemic control result is “improved glycemic control”.
